Results reported in the supplement of paper PMC5579334.

What was measured:
HSC1 [1] = assay: relative IC50 (inflection point of fitted dose-response curve, CellTox-Green cytotoxicity, 72 h; top asymptote may be below 50%); higher = less potent
Method in brief: (§1)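 MPNST cell lines and primary human Schwann cells were incubated 72 h at 37 °C in 384-well plates holding five 10-fold compound dilutions. CellTox-Green was added before seeding at a final 1:1000 dilution and reported fluorescence from DNA released by disrupted cells. Signals were scaled to vehicle and positive-control wells, and cultures failing plate quality control were dropped. Drug sensitivity score and relative IC50 come from four-parameter logistic fits, with IC50 censored at the top concentration.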

S1507-2 [2] = assay: as above
Method in brief: as §1

ST8814 [3] = assay: as above
Method in brief: as §1

HSC2 [4] = assay: as above
Method in brief: as §1

HS-PSS [5] = assay: as above
Method in brief: as §1

STS26T [6] = assay: as above
Method in brief: as §1

YST-1 = assay: relative IC50 (inflection point of fitted dose-response curve, CellTiter-Glo viability, 72 h; top asymptote may be below 50% inhibition); higher = less potent
Method in brief: (§2)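 MPNST cell lines and primary human Schwann cells (750–1000 cells per well) went into 384-well plates preprinted with each compound at five concentrations in 10-fold steps. Plates were incubated 72 h at 37 °C, 5% CO2. Viability was read as CellTiter-Glo ATP luminescence, scaled between vehicle and positive-control wells, with duplicates averaged where present. Percent inhibition is at the top concentration; drug sensitivity score and relative IC50 (censored at top concentration) come from four-parameter logistic fits.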

HSC1 [7] = assay: as above
Method in brief: as §2

S462 = assay: as above
Method in brief: as §2

S1507-2 [8] = assay: as above
Method in brief: as §2

ST8814 [9] = assay: as above
Method in brief: as §2

HSC2 [10] = assay: as above
Method in brief: as §2

HS-PSS [11] = assay: as above
Method in brief: as §2

HS-Sch-2 = assay: as above
Method in brief: as §2

STS26T [12] = assay: as above
Method in brief: as §2

Row | SMILES | relative IC50 (HSC1 [1]) [µM] | relative IC50 (S1507-2 [2]) [µM] | relative IC50 (ST8814 [3]) [µM] | relative IC50 (HSC2 [4]) [µM] | relative IC50 (HS-PSS [5]) [µM] | relative IC50 (STS26T [6]) [µM] | relative IC50 (YST-1) [µM] | relative IC50 (HSC1 [7]) [µM] | relative IC50 (S462) [µM] | relative IC50 (S1507-2 [8]) [µM] | relative IC50 (ST8814 [9]) [µM] | relative IC50 (HSC2 [10]) [µM] | relative IC50 (HS-PSS [11]) [µM] | relative IC50 (HS-Sch-2) [µM] | relative IC50 (STS26T [12]) [µM]
1 | Nc1nc(Cl)nc2c1ncn2[C@@H]1O[C@H](CO)[C@@H](O)[C@@H]1F [Clofarabine] | 0.323 | 1.94 | 0.814 | 0.337 | 0.311 | 0.585 | 0.331 | 0.289 | 0.374 | 0.817 | 0.744 | 0.207 | 0.387 | 0.161 | 0.301
2 | COc1cc([C@@H]2c3cc4c(cc3[C@@H](O[C@@H]3O[C@@H]5CO[C@@H](c6cccs6)O[C@H]5[C@H](O)[C@H]3O)[C@H]3COC(=O)[C@H]23)OCO4)cc(OC)c1O [Teniposide] | 1.15 | 1.41 | 0.219 | 1.43 | 3.01 | 0.266 | 0.0501 | 0.0688 | 0.112 | 0.314 | 0.193 | 0.0885 | 1.24 | 0.482 | 0.227
3 | CCN(CC)CCOc1ccc(/C(=C(/Cl)c2ccccc2)c2ccccc2)cc1 [Clomifene] | > 10 | 3.54 | 2.56 | 2.03 | 2.99 | 2.84 | 3.93 | 1.14 | 2.45 | 2.47 | 2.54 | 2.44 | 2.29 | 3.36 | 2.52
4 | CC(=O)[C@]1(O)Cc2c(O)c3c(c(O)c2[C@@H](O[C@H]2C[C@H](N)[C@H](O)[C@H](C)O2)C1)C(=O)c1ccccc1C3=O [Idarubicin] | 0.107 | 0.0541 | 0.027 | 0.204 | 0.162 | 0.0108 | 0.00854 | 0.0197 | 0.00947 | 0.0256 | 0.0249 | 0.0226 | 0.103 | 0.0397 | 0.0144
5 | CC[C@@H]1C(=O)N(C)c2cnc(Nc3ccc(C(=O)NC4CCN(C)CC4)cc3OC)nc2N1C1CCCC1 [BI 2536] | 0.0223 | 0.0106 | 0.00457 | 0.0215 |  | 0.00227 | 0.00354 | 0.0271 | 0.00492 | 0.0119 | 0.0093 | 0.0226 | 0.00764 | 0.00328 | 0.00349
6 | CC[C@]1(O)C[C@H]2CN(CCc3c([nH]c4ccccc34)[C@@](C(=O)OC)(c3cc4c(cc3OC)N(C=O)[C@H]3[C@@](O)(C(=O)OC)[C@H](OC(C)=O)[C@]5(CC)C=CCN6CC[C@]43[C@@H]65)C2)C1 [Vincristine] | 0.0622 | 0.00892 | 0.00685 | 0.0447 |  | 0.00113 | 0.00218 | 0.0103 | 0.00342 | 0.00645 | 0.00695 | 0.011 | 0.00951 | 0.00219 | 0.00176
7 | COc1ccc(-c2cc3c(C)nc(N)nc3n([C@H]3CC[C@H](OCCO)CC3)c2=O)cn1 | 0.501 | 1.63 | 1.52 | 2.71 |  | 0.35 | 0.0578 | 0.197 | 0.196 | 0.089 | 0.209 | 0.27 | 0.404 | 0.476 | 0.124
8 | O=C1NC(=O)[C@@H](c2cn3c4c(cccc24)CCC3)[C@@H]1c1c[nH]c2ccccc12 [Tivantinib] | 0.24 | 0.253 | 0.328 | 0.243 |  | 0.21 | 0.19 | 0.276 | 0.34 | 0.254 | 0.33 | 0.251 | 0.239 | 0.231 | 0.239
9 | Cn1c(=O)n(-c2ccc(C(C)(C)C#N)cc2)c2c3cc(-c4cnc5ccccc5c4)ccc3ncc21 [Dactolisib] | > 1 | > 1 | > 1 | > 1 |  | > 1 | 0.0119 | 0.00856 | 0.0148 | 0.011 | 0.0153 | 0.00832 | 0.0157 | 0.0121 | 0.00777
10 | CS(=O)(=O)OCCCCOS(C)(=O)=O [Busulfan] | > 100 | > 100 | > 100 | > 100 | > 100 | > 100 |  | > 100 | > 100 | > 100 | > 100 | > 100 | > 100 |  | > 100
11 | C=CCn1c(=O)c2cnc(Nc3ccc(N4CCN(C)CC4)cc3)nc2n1-c1cccc(C(C)(C)O)n1 [MK1775] | 1.21 | 0.196 | 0.375 | 1.51 |  | 0.167 | 0.326 | 0.224 | 0.111 | 0.231 | 0.264 | 0.225 | 0.547 | 0.0841 | 0.361
12 | OC[C@H]1O[C@@H](n2cnc3c2N=CNC[C@H]3O)C[C@@H]1O [Pentostatin] | > 10 | > 10 | > 10 | > 10 | > 10 | > 10 |  | > 10 | > 10 | > 10 | > 10 | > 10 | > 10 | > 10 | > 10
13 | Cn1c(Nc2ccc(C(F)(F)F)cc2)nc2cc(Oc3ccnc(-c4ncc(C(F)(F)F)[nH]4)c3)ccc21 [RAF265] | > 1 | > 1 | > 1 | > 1 | > 1 | > 1 | 0.131 | 0.0496 | 0.111 | 0.136 | 0.107 | 0.0206 | 0.177 |  | 0.137
14 | CC(=O)Nc1ccc(C(=O)Nc2ccccc2N)cc1 [Tacedinaline] | > 1 | > 1 | > 1 | > 1 |  | > 1 | > 1 | > 1 | > 1 | > 1 | > 1 | > 1 | > 1 | > 1 | > 1
15 | Cn1c(CCCC(=O)O)nc2cc(N(CCCl)CCCl)ccc21 [Bendamustine] | > 10 | > 10 | > 10 | > 10 | > 10 | > 10 |  | > 10 | > 10 | > 10 | > 10 | > 10 | > 10 | > 10 | > 10
16 | NC(=O)Nc1cc(-c2cccc(F)c2)sc1C(=O)N[C@H]1CCCNC1 [AZD7762] | 0.313 | 0.0571 | 0.243 | 0.266 |  | 0.135 | 0.313 | 0.161 | 0.0547 | 0.0631 | 0.149 | 0.31 | 0.207 | 0.067 | 0.139
17 | CCC1=C[C@@H]2CN(C1)Cc1c([nH]c3ccccc13)[C@@](C(=O)OC)(c1cc3c(cc1OC)N(C)[C@H]1[C@@](O)(C(=O)OC)[C@H](OC(C)=O)[C@]4(CC)C=CCN5CC[C@]31[C@@H]54)C2 [Vinorelbine] | 0.484 | 0.129 | 0.212 | 0.647 |  | 0.0153 | 0.003 | 0.153 | 0.034 | 0.109 | 0.14 | 0.0957 | 0.0214 | 0.00421 | 0.0225
18 | COC(=O)C[C@](O)(CCCC(C)(C)O)C(=O)O[C@@H]1C(OC)=C[C@]23CCCN2CCc2cc4c(cc2[C@H]13)OCO4 [Omacetaxine] | 1.09 | 0.524 | 0.489 | 0.589 |  | 0.13 | 0.00994 | 0.0517 | 0.0238 | 0.0661 | 0.0465 | 0.0508 | 0.047 | 0.0675 | 0.0416
19 | Cc1cc(Nc2cc(CN3CCOCC3)c3nc(C)c(Cc4ccc(Cl)cc4F)n3n2)n[nH]1 [Gandotinib] | 1.99 | 2.4 | 2.77 | 2.25 |  | 1.71 | 1.17 | 1.27 | 0.862 | 1.2 | 1.73 | 1.09 | 1 | 1.55 | 0.718
20 | CC(=O)O[C@@]12CO[C@@H]1C[C@H](O)[C@@]1(C)C(=O)[C@H](O)C3=C(C)[C@@H](OC(=O)[C@H](O)[C@@H](NC(=O)OC(C)(C)C)c4ccccc4)C[C@@](O)([C@@H](OC(=O)c4ccccc4)[C@H]21)C3(C)C [Docetaxel] | 0.00611 | 0.00613 | 0.00462 | 0.00843 |  | 0.00115 | 0.00102 | 0.00308 | 0.000759 | 0.0086 | 0.00395 | 0.00415 | 0.00386 | 0.00211 | 0.00107
21 | CC[C@]1(O)C[C@@H]2CN(CCc3c([nH]c4ccccc34)[C@@](C(=O)OC)(c3cc4c(cc3OC)N(C)[C@H]3[C@@](O)(C(=O)OC)[C@H](OC(C)=O)[C@]5(CC)C=CCN6CC[C@]43[C@@H]65)C2)C1 [Vinblastine] | 0.0319 | 0.00453 | 0.00283 | 0.0137 |  | 0.00201 | 0.00376 | 0.00683 | 0.00313 | 0.0053 | 0.00298 | 0.00582 | 0.0109 | 0.00221 | 0.00286
22 | CNC(=O)c1cc(Oc2ccc(NC(=O)Nc3ccc(Cl)c(C(F)(F)F)c3)cc2)ccn1 [Sorafenib] | > 1 | > 1 | > 1 | > 1 | > 1 | > 1 |  | > 1 | > 1 | > 1 | > 1 | > 1 | > 1 | > 1 | > 1
23 | S=P(N1CC1)(N1CC1)N1CC1 [Thio-TEPA] | > 50 | > 50 | > 50 | > 50 | > 50 | > 50 | > 50 | > 50 | > 50 | > 50 | > 50 | > 50 | > 50 |  | > 50
